According to patent US20100105655A1, “NOVEL COMPOUNDS 515” (ASTRAZENECA AB, priority 2008, published 2010):

The compounds below were run against T1, IGFR kinase (Homo sapiens, UniProt P08069) (assay: Enzyme assay (c), IGFR kinase, Caliper LabChip). Details: 30 nM IGFR kinase, 6 uM ATP, 3 uM peptide mix; read-out: IGFR IC50.
T1 construct: purchased Millipore
T1 sequence (P08069 31-1367): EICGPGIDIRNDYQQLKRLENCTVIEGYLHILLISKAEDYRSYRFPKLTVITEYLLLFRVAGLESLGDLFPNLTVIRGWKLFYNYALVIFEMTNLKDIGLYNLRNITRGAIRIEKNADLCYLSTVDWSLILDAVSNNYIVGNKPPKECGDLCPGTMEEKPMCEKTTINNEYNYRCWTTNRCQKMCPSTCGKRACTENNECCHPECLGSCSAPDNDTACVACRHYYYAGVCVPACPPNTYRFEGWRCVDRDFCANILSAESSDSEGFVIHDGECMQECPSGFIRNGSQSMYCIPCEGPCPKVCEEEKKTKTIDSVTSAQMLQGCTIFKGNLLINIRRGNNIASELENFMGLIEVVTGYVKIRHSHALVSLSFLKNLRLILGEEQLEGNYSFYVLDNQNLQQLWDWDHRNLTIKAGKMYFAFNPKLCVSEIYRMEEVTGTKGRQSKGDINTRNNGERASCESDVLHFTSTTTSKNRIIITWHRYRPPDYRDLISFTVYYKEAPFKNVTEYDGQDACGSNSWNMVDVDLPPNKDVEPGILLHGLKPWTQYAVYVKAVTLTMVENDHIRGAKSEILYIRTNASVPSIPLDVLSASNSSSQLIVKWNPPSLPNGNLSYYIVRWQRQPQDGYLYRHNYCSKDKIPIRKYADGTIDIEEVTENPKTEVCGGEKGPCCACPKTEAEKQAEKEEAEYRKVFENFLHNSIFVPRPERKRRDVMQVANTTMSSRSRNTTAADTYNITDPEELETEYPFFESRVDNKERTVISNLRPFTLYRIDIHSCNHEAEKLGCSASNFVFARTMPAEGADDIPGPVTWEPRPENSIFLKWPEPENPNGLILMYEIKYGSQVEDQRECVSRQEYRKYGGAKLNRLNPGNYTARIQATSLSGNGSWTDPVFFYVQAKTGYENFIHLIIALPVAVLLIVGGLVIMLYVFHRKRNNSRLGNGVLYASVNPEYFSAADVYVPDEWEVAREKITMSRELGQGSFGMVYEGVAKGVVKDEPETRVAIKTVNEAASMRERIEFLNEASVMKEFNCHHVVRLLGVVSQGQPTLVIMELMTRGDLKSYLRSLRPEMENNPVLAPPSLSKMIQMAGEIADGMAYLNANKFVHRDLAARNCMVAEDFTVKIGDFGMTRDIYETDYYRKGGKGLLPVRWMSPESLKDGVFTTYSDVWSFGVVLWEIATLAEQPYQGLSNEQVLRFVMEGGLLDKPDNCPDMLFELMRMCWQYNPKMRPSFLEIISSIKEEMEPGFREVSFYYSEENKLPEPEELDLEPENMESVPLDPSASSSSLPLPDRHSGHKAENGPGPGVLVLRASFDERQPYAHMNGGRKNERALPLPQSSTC
Format: biochemical
COc1ccc(OC[C@H]2CCCN2C(C)=O)cc1Nc1ncc(Cl)c(-c2cnc3ccccn23)n1 [Example 17, 1-[(2R)-2-[[3-[(5-chloro-4-imidazo[1,2-a]pyridin-3-yl-pyrimidin-2-yl)amino]-4-methoxy-phenoxy]methyl]pyrrolidin-1-yl]ethanone] showed an IC50 of 58 nM. For CNCC(=O)N1CC2CN(c3ccc(Nc4ncc(Cl)c(-c5cnc6c(F)cccn56)n4)c(OC)c3)CC(C1)O2 [Example 208, 1-[3-[4-[[5-chloro-4-(8-fluoroimidazo[1,2-a]pyridin-3-yl)pyrimidin-2-yl]amino]-3-methoxy-phenyl]-9-oxa-3,7-diazabicyclo[3.3.1]nonan-7-yl]-2-(methylamino)ethanone], the IC50 was 26 nM. With COc1cc(OC2CN(C(=O)[C@H](C)O)C2)ccc1Nc1ncc(Cl)c(-c2cnc3ccccn23)n1 [Example 27.1, (2S)-1-[3-[4-[(5-chloro-4-imidazo[1,2-a]pyridin-3-yl-pyrimidin-2-yl)amino]-3-methoxy-phenoxy]azetidin-1-yl]-2-hydroxy-propan-1-one] the IC50 was 31 nM. Compound COc1cc(C2CCNCC2)ccc1Nc1ncc(C)c(-c2cnn3ccccc23)n1 [Example 162, N-[2-methoxy-4-(4-piperidyl)phenyl]-5-methyl-4-pyrazolo[1,5-a]pyridin-3-yl-pyrimidin-2-amine] has an IC50 of 2 nM. COc1cc(N2C[C@@H](C)N(C(C)=O)C[C@@H]2C)ccc1Nc1ncc(Cl)c(-c2cnc3ccccn23)n1 [Example 3.35, 1-[(2R,5S)-4-[4-[(5-chloro-4-imidazo[1,2-a]pyridin-3-yl-pyrimidin-2-yl)amino]-3-methoxy-phenyl]-2,5-dimethyl-piperazin-1-yl]ethanone] gave an IC50 of 10 nM. COc1cc(C2CCNC(C)C2)ccc1Nc1ncc(Cl)c(-c2cnc3ccccn23)n1 (centres unmarked) [Example 59.2, 5-chloro-4-imidazo[1,2-a]pyridin-3-yl-N-[2-methoxy-4-(2-methyl-4-piperidyl)phenyl]pyrimidin-2-amine] showed an IC50 of 7 nM. COc1cc(OC2CN(C[C@H](C)O)C2)ccc1Nc1ncc(Cl)c(-c2cnc3ccccn23)n1 [Example 61, (2S)-1-[3-[4-[(5-chloro-4-imidazo[1,2-a]pyridin-3-yl-pyrimidin-2-yl)amino]-3-methoxy-phenoxy]azetidin-1-yl]propan-2-ol] showed an IC50 of 21 nM. Compound COc1cc(N2CCN(C(=O)[C@@H](N)CCO)CC2)ccc1Nc1ncc(Cl)c(-c2cnc3ccccn23)n1 [Example 24.13, (2S)-2-amino-1-[4-[4-[(5-chloro-4-imidazo[1,2-a]pynidin-3-yl-pyrimidin-2-yl)amino]-3-methoxy-phenyl]piperazin-1-yl]-4-hydroxy-butan-1-one] has an IC50 of 5 nM. Work on COc1ccc(N2CC[C@@H](O)C2)cc1Nc1ncc(Cl)c(-c2cnc3ccccn23)n1 [Example 3.18, (3R)-1-[3-[(5-chloro-4-imidazo[1,2-a]pyridin-3-yl-pyrimidin-2-yl)amino]-4-methoxy-phenyl]pyrrolidin-3-ol] yielded an IC50 of 41 nM. In the case of COc1cc(CC(=O)N2CC[C@H](O)C2)ccc1Nc1ncc(Cl)c(-c2cnc3ccccn23)n1 [Example 38, 2-[4-[(5-chloro-4-imidazo[1,2-a]pyridin-3-yl-pyrimidin-2-yl)amino]-3-methoxy-phenyl]-1-[(3S)-3-hydroxypyrrolidin-1-yl]ethanone], the IC50 is reported as 44 nM. COCCN1CCN(c2ccc(Nc3ncc(Cl)c(-c4cnc5ccccn45)n3)c(OC)c2)CC1 [Example 3.46, 5-chloro-4-imidazo[1,2-a]pyridin-3-yl-N-[2-methoxy-4-[4-(2-methoxyethyl)piperazin-1-yl]phenyl]pyrimidin-2-amine] was tested, and the IC50 was 6 nM. Compound COc1cc(C2CCN(C(=O)CO)CC2)ccc1Nc1ncc(C)c(-c2cnc3c(F)cccn23)n1 [Example 198, 1-[4-[4-[[4-(8-fluoroimidazo[1,2-a]pyridin-3-yl)-5-methyl-pyrimidin-2-yl]amino]-3-methoxy-phenyl]-1-piperidyl]-2-hydroxy-ethanone] has an IC50 of 26 nM. In the case of COc1cc(C(=O)N(C)CCO)ccc1Nc1ncc(Cl)c(-c2cnc3ccccn23)n1 [Example 33, 4-[(5-chloro-4-imidazo[1,2-a]pyridin-3-yl-pyrimidin-2-yl)amino]-N-(2-hydroxyethyl)-3-methoxy-N-methyl-benzamide], the IC50 is reported as 57 nM. With CNCc1ccn2c(-c3nc(Nc4ccc(N5CCN(C(C)=O)CC5)cc4OC)ncc3Cl)cnc2c1 [Example 186, 1-[4-[4-[[5-chloro-4-[7-(methylaminomethyl)imidazo[1,2-a]pyridin-3-yl]pyrimidin-2-yl]amino]-3-methoxy-phenyl]piperazin-1-yl]ethanone] the IC50 was 36 nM. COc1cc(N2CC[C@H](O)C2)ccc1Nc1ncc(Cl)c(-c2cnc3ccccn23)n1 [Example 3.47, (3S)-1-[4-[(5-chloro-4-imidazo[1,2-a]pyridin-3-yl-pyrimidin-2-yl)amino]-3-methoxy-phenyl]pyrrolidin-3-ol] showed an IC50 of 32 nM. COc1cc(CN2CCN(C(C)=O)CC2)ccc1Nc1ncc(Cl)c(-c2cnc3ccccn23)n1 [Example 21.6, 1-[4-[[4-[(5-chloro-4-imidazo[1,2-a]pyridin-3-yl-pyrimidin-2-yl)amino]-3-methoxy-phenyl]methyl]piperazin-1-yl]ethanone] showed an IC50 of 26 nM. Compound COc1cc(N2CCN(C(C)=O)CC2)ccc1Nc1ncc(C)c(-c2cnn3ccccc23)n1 [Example 158, 1-[4-[3-methoxy-4-[(5-methyl-4-pyrazolo[1,5-a]pyridin-3-yl-pyrimidin-2-yl)amino]phenyl]piperazin-1-yl]ethanone] has an IC50 of 15 nM. For COc1cc(N2CCN(CCO)[C@H](C)C2)ccc1Nc1ncc(F)c(-c2cnc3ccccn23)n1 [Example 272, 2-[(2R)-4-[4-[(5-fluoro-4-imidazo[1,2-a]pyridin-3-yl-pyrimidin-2-yl)amino]-3-methoxy-phenyl]-2-methyl-piperazin-1-yl]ethanol], the IC50 was 270 nM. COCCOC(=O)N1CCN(c2ccc(Nc3ncc(Cl)c(-c4cnc5ccccn45)n3)c(OC)c2)CC1 [Example 45, 2-methoxyethyl 4-[4-[(5-chloro-4-imidazo[1,2-a]pyridin-3-yl-pyrimidin-2-yl)amino]-3-methoxy-phenyl]piperazine-1-carboxylate] was tested, and the IC50 was 24 nM. For COc1cc(C2CCNCC2)ccc1Nc1ncc(Cl)c(-c2cnc3ccc(F)cn23)n1 [Example 247, 5-chloro-4-(6-fluoroimidazo[1,2-a]pyridin-3-yl)-N-[2-methoxy-4-(4-piperidyl)phenyl]pyrimidin-2-amine], the IC50 was 3 nM. COc1cc(N2CCN(CCO)CC2)ccc1Nc1ncc(Cl)c(-c2cnn3ccccc23)n1 [Example 134, 2-[4-[4-[(5-chloro-4-pyrazolo[1,5-a]pyridin-3-yl-pyrimidin-2-yl)amino]-3-methoxy-phenyl]piperazin-1-yl]ethanol] showed an IC50 of 5 nM. Work on COc1cc(N(C)CCN(C)CCO)ccc1Nc1ncc(Cl)c(-c2cnc3c(F)cccn23)n1 [Example 221, 2-[2-[4-[[5-chloro-4-(8-fluoroimidazo[1,2-a]pyridin-3-yl)pyrimidin-2-yl]amino]-3-methoxy-N-methyl-anilino]ethyl-methyl-amino]ethanol] yielded an IC50 of 10 nM. For COc1cc2c(cc1Nc1ncc(F)c(-c3cnn4ccccc34)n1)N(C(=O)CN(C)C)CC2 [Example 176, 2-(dimethylamino)-1-[6-[(5-fluoro-4-pyrazolo[1,5-a]pyridin-3-yl-pyrimidin-2-yl)amino]-5-methoxy-indolin-1-yl]ethanone], the IC50 was 22 nM.
